The values below come from PMC7363796, “Blood pressure-lowering effects of a Bowman-Birk inhibitor and its derived peptides in normotensive and hypertensive rats” (Scientific Reports, 2020).

Broadly, the IC50 is the concentration needed to halve the response being measured. Usually Ki stands for the dissociation constant of the complex between target and ligand, obtained from inhibition or displacement.

Experiment [1] concerns the target T1, angiotensin converting enzyme (ACE) (Oryctolagus cuniculus, UniProt P12822).
T1 construct: ACE stock solution was obtained from rabbit lung; from tissue; host or cells: rabbit lung
T1 sequence (P12822 34-1310): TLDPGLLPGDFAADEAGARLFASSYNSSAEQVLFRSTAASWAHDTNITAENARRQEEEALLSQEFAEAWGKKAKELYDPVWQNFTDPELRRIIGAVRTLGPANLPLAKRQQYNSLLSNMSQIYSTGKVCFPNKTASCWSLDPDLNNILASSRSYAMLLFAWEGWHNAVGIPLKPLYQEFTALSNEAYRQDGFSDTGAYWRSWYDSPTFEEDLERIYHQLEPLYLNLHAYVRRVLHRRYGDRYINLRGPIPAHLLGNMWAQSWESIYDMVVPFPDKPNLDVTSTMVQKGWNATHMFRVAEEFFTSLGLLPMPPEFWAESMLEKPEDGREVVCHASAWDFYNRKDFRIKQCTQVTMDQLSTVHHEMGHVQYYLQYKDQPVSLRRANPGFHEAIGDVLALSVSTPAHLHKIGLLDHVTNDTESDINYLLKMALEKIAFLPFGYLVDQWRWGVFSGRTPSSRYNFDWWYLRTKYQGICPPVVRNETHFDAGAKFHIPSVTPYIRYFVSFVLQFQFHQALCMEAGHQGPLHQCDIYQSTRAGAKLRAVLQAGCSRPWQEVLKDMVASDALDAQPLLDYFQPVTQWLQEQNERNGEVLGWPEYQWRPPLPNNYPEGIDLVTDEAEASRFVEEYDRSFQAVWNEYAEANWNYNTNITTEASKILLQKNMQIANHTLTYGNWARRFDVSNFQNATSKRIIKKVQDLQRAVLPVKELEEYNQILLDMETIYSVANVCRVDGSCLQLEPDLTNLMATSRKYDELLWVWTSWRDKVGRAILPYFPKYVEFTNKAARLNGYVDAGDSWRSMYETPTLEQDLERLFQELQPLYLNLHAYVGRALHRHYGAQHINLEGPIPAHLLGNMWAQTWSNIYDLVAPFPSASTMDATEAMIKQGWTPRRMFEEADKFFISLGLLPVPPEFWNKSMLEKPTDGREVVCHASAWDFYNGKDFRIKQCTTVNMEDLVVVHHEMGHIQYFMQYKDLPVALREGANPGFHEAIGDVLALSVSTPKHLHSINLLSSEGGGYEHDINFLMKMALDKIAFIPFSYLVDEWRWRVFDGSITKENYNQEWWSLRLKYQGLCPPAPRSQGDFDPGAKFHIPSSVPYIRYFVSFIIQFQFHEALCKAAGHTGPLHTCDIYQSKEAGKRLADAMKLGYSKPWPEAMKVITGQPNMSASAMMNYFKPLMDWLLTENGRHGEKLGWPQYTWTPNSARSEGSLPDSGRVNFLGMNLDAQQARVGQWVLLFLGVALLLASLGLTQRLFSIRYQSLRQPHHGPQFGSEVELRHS
Nature of the experiment: ACE inhibition assay with HHL substrate (Hayakari method). It counts as biochemical. Conditions: rabbit lung ACE; for inhibition at 100 µM: pH 8.3, read-out: Highest ACE-inhibitory value; for IC50: sodium phosphate pH 8.3, 37 °C, 10 min pre-incubation, 45 min reaction, absorbance 382 nm, non-linear fit, triplicate, read-out: IC50 against ACE. On the procedure:
Inhibitory activities of peptides PepTry and PepChy and BTCI against ACE were performed according to Hayakari, et al. (1978) using the synthetic substrate hippuryl-L-histidyl-L-leucine (HHL)[71]. Briefly, ACE stock solution was obtained from rabbit lung in 10 mM sodium phosphate buffer, pH 8.3, and BTCI and peptides stock solutions were prepared in MilliQ water (m/v). Concentration of BTCI was estimated from spectrophotometric absorbance at 280 nm based A2801% = 8.23. Concentration of PepTry and PepChy were estimated according to Eq. 1. BTCI and peptides were diluted in 10 mM sodium phosphate buffer pH 8.3 to obtain concentrations ranging from 0 to 600 µM. Ten µL peptide solutions were pre-incubated with 10 µL of ACE containing 0.5 M NaCl at 37 °C for 10 min. […] The enzymatic reaction was terminated by adding a mixture containing 550 µL of 100 mM sodium phosphate pH 8.3 and 332.5 µL of 3% (m/v) 2,4,6-trichloro-s-triazine (TT) (in dioxane). The mixture was incubated for 5 min. at room temperature and then centrifuged at 1000 g for 10 min at 4 °C. The absorbance values of supernatants containing hippuric acid liberated from HHL were recorded at 382 nm using the Jasco Spectrophotometer V-530 (Jasco Analytical Instruments, Tokyo, Japan). IC50 values for peptides and BTCI were calculated from nonlinear regression curve of ACE residual activity (%) versus inhibitor concentration (µM) (BTCI, PepTry and PepChy) using Origin software (OriginLab Corporation, USA). The control was prepared containing only the substrate without enzyme solution. Assays were performed in triplicate.

Experiment [2] deals with T2, chymotrypsin (Bos taurus, UniProt P00766). Briefly: Inhibition of chymotrypsin, residual activity with GPNA substrate. In kind it is biochemical. The following applies: pH 7.6, from fitted inhibition curves (GRAFIT), read-out: Inhibition constant Ki against chymotrypsin. On the procedure:
(§1) The inhibitory activities of BTCI, PepTry and PepChy against trypsin and chymotrypsin activities were assayed using the substrates Na-benzoyl-DL-arginine-p-nitroanilide (BAPNA) and n-glutaryl-L-phenylalanine-p-nitroanilide (GPNA), respectively (Sigma)[19],[39]. Enzymatic assays were performed in 50 mM Tris-HCl, CaCl2 20 mM pH 7.6 for chymotrypsin or pH 8.2 for trypsin. Forty μL of BTCI and PepTry (0 to 20 μM) and BTCI and PepChy (0 to 50 μM) were incubated with 40 μL of trypsin (2.57 µM) or chymotrypsin (28.60 µM), respectively, in a 96-well plate at room temperature for 15 minutes. Then, 200 μL BAPNA (0.064 mg/mL) or GPNA (0.8 mg/mL) were added. The reaction was stopped by addition of 30 μL 30% acetic acid (v/v). Enzymatic hydrolysis of the substrate was evaluated by recording the absorbance at 410 nm. The residual activities of the enzymes, in the presence of inhibitors, were estimated considering the free enzyme activity to be 100%. Inhibition constants of the enzyme-inhibitor complexes, Ki, were calculated from fitted inhibition curves[70] using the GRAFIT program version 3 (Erithacus Software, Horley, Surrey, United Kingdom).

For experiment [3], the target named is T3, trypsin (Bos taurus, UniProt P00760).
T3 sequence (P00760 24-246): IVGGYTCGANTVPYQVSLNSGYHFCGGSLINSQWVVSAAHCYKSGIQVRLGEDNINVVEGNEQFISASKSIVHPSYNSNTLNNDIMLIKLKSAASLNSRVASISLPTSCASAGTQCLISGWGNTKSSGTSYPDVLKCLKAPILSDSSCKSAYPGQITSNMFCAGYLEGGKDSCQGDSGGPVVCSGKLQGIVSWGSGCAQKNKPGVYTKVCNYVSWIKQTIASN
Nature of the experiment: Inhibition of trypsin, residual activity with BAPNA substrate. In kind it is biochemical. Conditions: pH 8.2, from fitted inhibition curves (GRAFIT), read-out: Inhibition constant Ki against trypsin. On the procedure: as §1

The target of experiment [4] is T2, chymotrypsin. Conditions: literature value; read-out: Inhibition constant Ki against chymotrypsin; cited from earlier work. On the procedure: (§2) The inhibitory activities of BTCI and its derived peptides, PepTry and PepChy, were evaluated through the residual enzymatic activity of serine proteases trypsin and chymotrypsin in the presence of increasing concentrations of BTCI and its derived peptides (Fig. 2A–D). In the absence of BTCI and peptides, the proteases cleave BAPNA/GPNA substrates releasing the yellow-colored p-nitroanilide product corresponding to an enzymatic activity of 100%[39]. In the presence of BTCI and peptides, a gradual decay of the protease activities is observed. BTCI at approximately 6 µM and 40 µM inhibits trypsi ...

In experiment [5] the target is T3, trypsin. Conditions: literature value; read-out: Inhibition constant Ki against trypsin; cited from earlier work. On the procedure:
as §2

Like-named read-outs stand apart in the source and are kept apart here. Where a SMILES comes first, the peptide text is derived from it. Bridges are numbered along the chain shown (N, C = ends).

Take `CC[C@H](C)[C@@H]1NC(=O)[C@H](CO)NC(=O)[C@H](Cc2ccccc2)NC(=O)[C@H]([C@@H](C)O)NC(=O)[C@@H](N)CSSC[C@@H](C(=O)O)NC(=O)[C@H](CCC(N)=O)NC(=O)[C@H](C)NC(=O)[C@@H]2CCCN2C1=O` [PepChy] (H-CTFSIPAQC-OH; disulfide 1-9): in experiment [1], the inhibition at 100 µM was around 98% and the IC50 is 24.7 ± 1.1 µM. In experiment [2], the Ki was 121 µM.

For `CC[C@H](C)[C@@H]1NC(=O)[C@H](CO)NC(=O)[C@H](CCCCN)NC(=O)[C@H]([C@@H](C)O)NC(=O)[C@@H](N)CSSC[C@@H](C(=O)O)NC(=O)[C@H](CCC(N)=O)NC(=O)[C@@H]2CCCN2C(=O)[C@@H]2CCCN2C1=O` [PepTry] (H-CTKSIPPQC-OH; disulfide 1-9), in experiment [1], the inhibition at 100 µM is around 98% and the IC50 is 24.4 ± 1.1 µM. In addition, the Ki in experiment [3] was found to be 0.119 µM.

As for “BTCI: Bowman-Birk protease inhibitor purified from Vigna unguiculata (Cowpea) seeds; small protein, 9071 Da, seven disulfide bonds”, the Ki in experiment [4] was 0.115 µM.

B1: BTCI: Bowman-Birk protease inhibitor purified from Vigna unguiculata (Cowpea) seeds; small protein, 9071 Da, seven disulfide bonds (protein)
chain: SGHHEDSTDEASESSKPCCDRCECTKSIPPQCRCSDVRLNSCHSACKSCACTFSIPAQCFCGDINDFCYKPCKSSHSDDDDWN
modifications: seven intramolecular disulfide bonds; native protein purified from seeds (9071.6 Da)
For B1, the IC50 in experiment [1] came out at 54.6 ± 2.9 µM. Further, the inhibitory constant (Ki) in experiment [5] is 0.0059 µM.
